Measured values from article PMC6530537, “Efficient development of stable and highly functionalised peptides targeting the CK2α/CK2β protein–protein interaction” (Chemical Science, 2019).
Residue numbers refer to the chain shown, from its start. Blank lines part the entries; values can stand above or below the molecule they belong to. Where a SMILES comes first, the peptide text is derived from it. Bridges are numbered along the chain shown (N, C = ends). [ ]: non-standard residue; d: D form. Dap(N3) = [N-]=[N+]=NC[C@H](N)C(=O)O

Key:
HCT116 cells = experiment: cells; format: cell-based, human; conditions: Homo sapiens, HCT-116, 96 h; HCT116 cells, 4 day incubation, SYTOX green imaging, average of at least four independent repeats; read-out: GI50
Method: (§1) page 47: 1.5. Biological experimental 1.5.1. […] The experiment was performed in duplicates. 1.5.2. […] 1.5.3. […] 46

U2OS cells = experiment: cells; format: cell-based, human; conditions: Homo sapiens, 96 h; U2OS cells, 4 day incubation, SYTOX green imaging, average of at least four independent repeats; read-out: GI50
Method: as §1

CK2α [1] = target: T1, CK2α (Homo sapiens, UniProt P68400); experiment: Fluorescence polarisation assay: displacement of fluorescein-labelled CK2β-derived probe from CK2α; format: binding; conditions: FP, 15 µM test compound, 450 nM CK2α, 7.4 nM CK2β_pep probe, 350 mM NaCl, 20 mM Mes pH 6.5, 30 min incubation, triplicates; approximate; read-out: % inhibition at 15 μM (CK2β-like probe displacement)
T1 construct: CK2α_WT was used (residues 2-329); His6 (N, cleaved yes); made in house; host or cells: Escherichia coli BL21(DE3)
T1 sequence (P68400 2-329): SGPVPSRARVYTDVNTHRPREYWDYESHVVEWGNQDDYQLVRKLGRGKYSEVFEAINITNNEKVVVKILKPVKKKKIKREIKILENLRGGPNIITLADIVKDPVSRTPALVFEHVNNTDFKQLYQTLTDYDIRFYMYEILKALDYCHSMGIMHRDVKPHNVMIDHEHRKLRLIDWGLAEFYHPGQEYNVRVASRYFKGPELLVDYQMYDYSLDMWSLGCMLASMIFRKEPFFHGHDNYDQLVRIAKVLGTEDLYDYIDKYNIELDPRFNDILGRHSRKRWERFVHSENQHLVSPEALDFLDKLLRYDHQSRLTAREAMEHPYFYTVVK
Text: Molecular modelling identified Cys2 and Gly11 of Pc,[34] corresponding to P185 and P194 of CK2β, as suitable residues to staple: they make negligible contributions to the binding and are positioned at a suitable distance from each other to accommodate a 2C-CuAAC staple (ESI, Fig. S1 ^†). To cyclise the peptide, azido amino acids bearing one-carbon-atom side chains (Fmoc-Aza-OH) were used in combination with aliphatic linkers of different lengths as proposed by molecular modelling (Fig. 2 and ESI Table S1 ^†). The ability of the synthesised macrocycles to disrupt the α/β PPI of CK2 was then tested in a preliminary fluorescent polarisation assay (FP) (Fig. 2). […]
(§2) lysed using a high-pressure homogeniser.
(§3) The soluble supernatant was applied on a […]
(§4) mM NaCl, 1mM DTT, 1mM EDTA, pH 8.5). 100µL of the precision protease was loaded onto the […]
Pure protein was concentrated to 15 mg/mL and flash frozen in liquid N2.
1.4.2. Fluorescent Polarisation anisotropy
Approximate % inhibition of
The experiment was performed in triplicates.
(§5) 1.4.3. Isothermal Calorimetry Titration
(§6) 1.4.3.1. Direct binding assay
(§7) DMSO) and concentrated to 20-50 μM. Compounds in 100× stock solutions were diluted into the […]
(§8) Control titrations were performed, and the […]

[2] = pH 6.5
CK2α/CK2β interaction = target: T2, CK2α/CK2β interaction (Homo sapiens, UniProt P68400); experiment: ITC competition assay: CK2β binding to CK2α alone and in the presence of peptide; conditions: 25°C
T2 construct: CK2α_WT was used (residues 2-329); His6 (N, cleaved yes); made in house; host or cells: Escherichia coli BL21(DE3)
T2 sequence (P68400 2-329): T1 sequence (P68400 2-329)
Method: We then wanted to investigate whether the peptides would be able to inhibit the binding of the β subunit to the α subunit. To this end, the binding affinity of the regulatory β subunit for the catalytic domain was determined via ITC (Kd 9 nM). This was then repeated in the presence of 100 μM P1-C4 and P2-C4 (ESI, Table S4 ^†). […] As one of the key roles of CK2β is to recruit substrates to the kinase, the effect of PPI inhibition on substrate phosphorylation was studied using CK2β dependent and independent substrates. […] It should be noted that the kinase assay was performed using the pre-formed CK2α/β complex as the ability of CK2α to phosphorylate eIF2β requires the presence of the CK2β subunit.
1.4.3.2. Competition assay […]
concentrated to 4-6 μM. CK2β (9.3 mg/mL, 20 mM Tris pH 8.5, 500 mM NaCl) was diluted in Tris buffer (200 mM, NaCl, 300 mM, 10% DMSO) and concentrated to 40 μM. In a typical experiment, […]
performed at 150 second intervals. The syringe was loaded with CK2β and rotated at 750 rpm. The same experiment was repeated in the presence of the peptide s: compounds at 1 mM in DMSO were added to the solutions of CK2α and CK2β (prepared as described above) to a final concentration of […]
binding model using Origin software. […]
(CK2β-RAD) 200s, baseline 120s (assay buffer), control loading 200s (RAD), baseline 150s (assay buffer), ligand binding (association) 400s (CK2α K74A and CAM7117) and ligand dissociation 600s (assay buffer), followed by regeneration and next cycles. […]
GraphPad. The results are the average of 4 repeats and error shown as SEM.
Figure S10- Sensorgrams of the BLI competition experiments to assess the ability of P2-C4 to […] the CK2α/CK2β-RAD complex. a) Concentration of peptide ranging from 10 to 0.025 μM and 0 μM. b) Concentration of peptide ranging from 10 to 5 nM and 0 nM.
(1 picture or pasted object on this page, not shown here)

CK2α [3] = target: T3, CK2α (Homo sapiens, UniProt P68400, K74A/K75A/K76A/R21S); experiment: Isothermal titration calorimetry, direct binding to CK2α; conditions: ITC, 25°C, CK2α_KA, Tris 200 mM, NaCl 300 mM, 10% DMSO, single site binding model
T3 construct: CK2α_KA (residues 2 -329) contained four; His6 (N, cleaved yes); made in house; host or cells: Escherichia coli BL21(DE3)
T3 sequence (P68400 2-329 R21S/K74A/K75A/K76A): T1 sequence (P68400 2-329) with R20S, K73A, K74A, K75A
Method: as §2, §3, §4
Pure protein was concentrated to 15 mg/mL and flash frozen in liquid N2. […]
as §5, §6, §7, §8

Molecule: O=C(O)c1ccc2c(c1)nc(Nc1cccc(Cl)c1)c1ccncc12 [CX4945, reference compound]
- GI50 (HCT116 cells): 14 ± 2 µM
- GI50 (U2OS cells): 7 ± 1 µM

- inhibition at 15 µM (CK2α [1]): 0.6 ± 0.5%
Molecule: CC[C@H](C)[C@@H]1NC(=O)[C@H](CCCCN)NC(=O)[C@H](Cc2ccccc2)NC(=O)CNC(=O)[C@H](Cc2ccc(O)cc2)NC(=O)[C@H](CC(C)C)NC(=O)[C@H](CCCNC(=N)N)NC(=O)[C@@H](NC(C)=O)Cn2cc(nn2)CCc2cn(nn2)C[C@@H](C(N)=O)NC(=O)[C@H](Cc2c[nH]cn2)NC1=O [P0-C1]

- Solubility under the assay conditions [2]: insoluble
Molecule: CC[C@H](C)[C@@H]1NC(=O)[C@H](CCCCN)NC(=O)[C@H](Cc2ccccc2)NC(=O)CNC(=O)[C@H](Cc2ccc(O)cc2)NC(=O)[C@H](CC(C)C)NC(=O)[C@H](CCCNC(=N)N)NC(=O)[C@@H](NC(=O)CNC(C)=O)Cn2cc(nn2)Cc2cn(nn2)C[C@@H](C(=O)NCC(=O)NCC(N)=O)NC(=O)[C@H](Cc2c[nH]cn2)NC1=O [P1-C3]

- Binding of CK2β to CK2α in the presence of peptide (CK2α/CK2β interaction; 100 μM peptide, preliminary assay): no binding of CK2β to CK2α was detected
- Kd (CK2α [3]): 0.46 µM
- inhibition at 15 µM (CK2α [1]): 93 ± 1%
Molecule: CC[C@H](C)[C@@H]1NC(=O)[C@H](CCCCN)NC(=O)[C@H](Cc2ccccc2)NC(=O)CNC(=O)[C@H](Cc2ccc(O)cc2)NC(=O)[C@H](CC(C)C)NC(=O)[C@H](CCCNC(=N)N)NC(=O)[C@@H](NC(=O)CNC(C)=O)Cn2cc(nn2)-c2cc(C(=O)O)cc(c2)-c2cn(nn2)C[C@@H](C(=O)NCC(=O)NCC(N)=O)NC(=O)[C@H](Cc2c[nH]cn2)NC1=O [P1-C4]

- Kd (CK2α [3]): 44 µM
Molecule: CC(=O)NCC(=O)N[C@@H](CN=[N+]=[N-])C(=O)N[C@@H](CCCNC(=N)N)C(=O)N[C@@H](CC(C)C)C(=O)N[C@@H](Cc1ccc(O)cc1)C(=O)NCC(=O)N[C@@H](Cc1ccccc1)C(=O)N[C@@H](CCCCN)C(=O)N[C@@H](Cc1c[nH]c2ccccc12)C(=O)N[C@@H](Cc1c[nH]cn1)C(=O)N[C@@H](CN=[N+]=[N-])C(=O)NCC(=O)NCC(N)=O [P2] (Ac-G[Dap(N3)]RLYGFKWH[Dap(N3)]GG-NH2)

- Kd (CK2α [3]): 1 µM
Molecule: CC[C@H](C)[C@@H]1NC(=O)[C@H](CCCCN)NC(=O)[C@H](Cc2ccccc2)NC(=O)CNC(=O)[C@H](Cc2ccc(O)cc2)NC(=O)[C@H](CC(C)C)NC(=O)[C@H](CCCNC(=N)N)NC(=O)[C@@H](NC(=O)CNC(C)=O)CSSC[C@@H](C(=O)NCC(N)=O)NC(=O)CNC(=O)[C@H](Cc2c[nH]cn2)NC1=O [Pc, reference compound] (Ac-GCRLYGFKIHGCG-NH2; disulfide 2-12)

Molecule: CK2β: regulatory β subunit of CK2, recombinant construct (1-198)
- Kd (CK2α/CK2β interaction; CK2β in the syringe, CK2α in the cell, no peptide, read-out: Kd of the regulatory β subunit for the catalytic domain CK2α): 0.009 µM

- Solubility under the assay conditions [2]: insoluble
Molecule: GXC2RLYGFKIHXC2GG (sidechain bridge or staple) [P1-C2]
